Experimental findings from PMC8286840, “Identifying SARS-CoV-2 antiviral compounds by screening for small molecule inhibitors of Nsp3 papain-like protease” (Biochemical Journal, 2021) are described below.

For assay [1], the target named is T1, SARS-CoV-2 PLpro (nsp3 1564–1878) (Severe acute respiratory syndrome coronavirus 2, UniProt P0DTD1). Nature of the assay: biochemical. The settings on record: low concentration screen, read-out: % of control remaining. Also noted: FRET-quenched peptide (Pro3) cleavage by PLpro, 10 min pre-incubation, slope over 20 min, normalised to no-compound control.
Assay [2] deals with T1, SARS-CoV-2 PLpro (nsp3 1564–1878). Nature of the assay: biochemical. Also noted: FRET-quenched peptide (Pro3) cleavage by PLpro, 10 min pre-incubation, slope over 20 min, normalised to no-compound control. The settings on record: high concentration screen, read-out: % of control remaining.

Where a name gives a salt, the structure may show the parent alone. Read-outs that look alike come from different tables or passages of the source.

Regarding `O=C1Cc2c([nH]c3ccc(Br)cc23)-c2ncccc2N1` [1-Azakenpaullone], the remaining activity at 1.25 µM in assay [1] (Well no.=2335) is 96.4%. Also, the remaining activity at 3.75 µM in assay [2] (Well no.=2335) turned out to be 97.1%.
For `CCCC(=O)O[C@@H]1[C@@H](C)[C@@]2(O)[C@@H](C=C(CO)C[C@]3(O)C(=O)C(C)=C[C@@H]23)[C@@H]2C(C)(C)[C@]12OC(=O)CCC` [Phorbol 12,13-dibutyrate], the remaining activity at 1.25 µM in assay [1] (Well no.=3487) is 97.7%. For the same compound, the remaining activity at 3.75 µM in assay [2] (Well no.=3487) is 100%.
As to `COc1cc(=O)n(C)c2c(OCC(O)C(C)(C)O)cccc12` (stereo not shown) [Foliosidine], the remaining activity at 1.25 µM in assay [1] (Well no.=565) worked out at 104%. For the same compound, in assay [2] (Well no.=565), the remaining activity at 3.75 µM turned out to be 97.8%.
Turning to `CC1=C(/C=C/C(C)=C/C=C/C(C)=C/C=O)C(C)(C)CCC1` [All-trans-retinal], the remaining activity at 1.25 µM in assay [1] (Well no.=7443) stood at 102%. The remaining activity at 3.75 µM in assay [2] (Well no.=7443) was 102%.
In the case of `O=C(O)/C=C(\CC(=O)O)C(=O)O` [trans-Aconitic acid], the remaining activity at 1.25 µM in assay [1] (Well no.=6827) is 94.2%. For the same compound, the remaining activity at 3.75 µM in assay [2] (Well no.=6827) came out at 95.7%.
On to `COc1ccc(S(=O)(=O)Nc2c(C)cc(C)cc2C)cc1` [GSK137647A], for which, in assay [1] (Well no.=7757), the remaining activity at 1.25 µM is 103%. For the same compound, in assay [2] (Well no.=7757), the remaining activity at 3.75 µM turned out to be 103%.
With `Cc1cc(/N=N/c2ccc(S(=O)(=O)Nc3ccccn3)cc2)c(N)cc1O` [MS436], in assay [1] (Well no.=7590), the remaining activity at 1.25 µM came to 93.3%. Moreover, the remaining activity at 3.75 µM in assay [2] (Well no.=7590) was 96.8%.
Consider `COc1ccc2c(c1)c(CC(=O)O)c(C)n2C(=O)c1ccccc1` [1-benzoyl-5-methoxy-2-methylindole-3-acetic acid], for which the remaining activity at 1.25 µM in assay [1] (Well no.=118) worked out at 102%. The remaining activity at 3.75 µM in assay [2] (Well no.=118) came out at 104%.
On to `CC(C)N(CCC(=O)c1ccc2ccccc2c1)Cc1ccccc1` [ZM39923 (hydrochloride)], for which the remaining activity at 1.25 µM in assay [1] (Well no.=8170) came to 104%. For the same compound, the remaining activity at 3.75 µM in assay [2] (Well no.=8170) was 98%.
Regarding `COc1ccc(NS(=O)(=O)c2sc3ccc(Cl)cc3c2C)cc1N1CCNCC1` [SB 271046], the remaining activity at 1.25 µM in assay [1] (Well no.=4934) came out at 94.2%. For the same compound, the remaining activity at 3.75 µM in assay [2] (Well no.=4934) turned out to be 92.4%.
Consider `CCCCCCCCCCCCCCCC(=O)OC/C=C(C)/C=C/C=C(C)/C=C/C1=C(C)CCCC1(C)C` [Retinyl palmitate], for which the remaining activity at 1.25 µM in assay [1] (Well no.=4134) came to 96.7%. Further, in assay [2] (Well no.=4134), the remaining activity at 3.75 µM amounted to 97.6%.
As for `COc1cc2c(cc1OC(C)C)[C@H](c1ccc(Cl)cc1)N(c1ccc(N(C)C[C@H]3CC[C@H](N4CCN(C)C(=O)C4)CC3)cc1)C(=O)C2` [NVP-CGM097 (sulfate)], the remaining activity at 1.25 µM in assay [1] (Well no.=6878) was 95.2%. Further, the remaining activity at 3.75 µM in assay [2] (Well no.=6878) was 89.6%.
As for `O=C(CO)N1CCC(c2n[nH]c(-c3ccc(Cl)cc3)c2-c2ccncn2)CC1` [SD-06], the remaining activity at 1.25 µM in assay [1] (Well no.=2897) was 99.5%. In assay [2] (Well no.=2897), the remaining activity at 3.75 µM is 97%.
Turning to `CC(C)C(=O)Nc1ccc([N+](=O)[O-])c(C(F)(F)F)c1` [Flutamide], the results for the remaining activity at 1.25 µM in assay [1] (Well no.=759) and in assay [1] (Well no.=2130) were 90.8% and 93%, respectively. The remaining activity at 3.75 µM in assay [2] (Well no.=759) turned out to be 97.8%; in assay [2] (Well no.=2130) it was 95%.
On to `[N-]=[N+]=N[C@]1(CO)O[C@@H](n2ccc(N)nc2=O)[C@H](O)[C@@H]1O` [R-1479], for which the remaining activity at 1.25 µM in assay [1] (Well no.=7756) was found to be 97.4%. Moreover, the remaining activity at 3.75 µM in assay [2] (Well no.=7756) was determined as 99%.
Take `CC(=O)N[C@@H](CC(C)C)C(=O)O` [N-Acetyl-L-leucine]: the remaining activity at 1.25 µM in assay [1] (Well no.=7596) was 97%. The remaining activity at 3.75 µM in assay [2] (Well no.=7596) amounted to 98.8%.
For the compound `O=C1C(=O)N(Cc2ccc(-c3ccccc3)cc2)c2ccc(OC(F)(F)F)cc21` [VU 0365114], in assay [1] (Well no.=8036), the remaining activity at 1.25 µM worked out at 97.4%. The remaining activity at 3.75 µM in assay [2] (Well no.=8036) is 94.8%.
In the case of `CC1(C)[C@@H](O[C@H]2O[C@H](C(=O)O)[C@@H](O)[C@H](O)[C@H]2O[C@@H]2O[C@H](C(=O)O)[C@@H](O)[C@H](O)[C@H]2O)CC[C@]2(C)[C@H]3C(=O)C=C4[C@@H]5C[C@@](C)(C(=O)O)CC[C@]5(C)CC[C@@]4(C)[C@]3(C)CC[C@@H]12` [Glycyrrhizic acid], in assay [1] (Well no.=5196), the remaining activity at 1.25 µM was found to be 106%. Besides, the remaining activity at 3.75 µM in assay [2] (Well no.=5196) was 93.8%.
On to `CCCC(N)C(=O)O` (racemic) [DL-Norvaline], for which the remaining activity at 1.25 µM in assay [1] (Well no.=7399) is 108%. The remaining activity at 3.75 µM in assay [2] (Well no.=7399) was 108%; in assay [2] (Well no.=8563) it was 109%.
`CC(N)Cc1c[nH]c2ccc(OCc3cccs3)cc12` (stereo not shown) [BW 723C86]: the remaining activity at 1.25 µM in assay [1] (Well no.=279) amounted to 98.7%. Moreover, the remaining activity at 3.75 µM in assay [2] (Well no.=279) amounted to 98.9%.
For the compound `Nc1ccc(CCNc2ncnc3c2ncn3[C@@H]2O[C@H](CO)[C@@H](O)[C@H]2O)cc1` [N6-2-(4-Aminophenyl)ethyladenosine], the remaining activity at 1.25 µM in assay [1] (Well no.=162) was 94.9%. For the same compound, in assay [2] (Well no.=162), the remaining activity at 3.75 µM was determined as 98%.
Turning to `C=CC[C@H](N)C(=O)O` [L-allylglycine], the remaining activity at 1.25 µM in assay [1] (Well no.=292) was 91.4%. Moreover, in assay [2] (Well no.=292), the remaining activity at 3.75 µM was found to be 91.8%.
Take `Cc1cc(F)c(Nc2ncnc3cc(OCc4ccccc4)ccc23)cc1O` [ZM 323881 hydrochloride - 5-((7-Benzyloxyquinazolin-4-yl)amino)-4-fluoro-2-methylphenol hydrochloride]: in assay [1] (Well no.=2538), the remaining activity at 1.25 µM was determined as 91.5%. For the same compound, in assay [2] (Well no.=2538), the remaining activity at 3.75 µM came out at 92%.
As to `Cc1cccc(Nc2nc(-c3ccncc3)cs2)c1` [STF-62247], in assay [1] (Well no.=4615), the remaining activity at 1.25 µM is 102%. The remaining activity at 3.75 µM in assay [2] (Well no.=4615) stood at 106%.
On to `c1ccc2c(CCNc3ccc(Nc4ccncc4)cc3)c[nH]c2c1` [Serdemetan], for which the remaining activity at 1.25 µM in assay [1] (Well no.=6730) is 97.7%. The remaining activity at 3.75 µM in assay [2] (Well no.=6730) is 101%.
As to `O=C(Nc1cccnc1)N1CCC(Cc2cccc(Oc3ccc(C(F)(F)F)cn3)c2)CC1` [PF-3845], the remaining activity at 1.25 µM in assay [1] (Well no.=4643) worked out at 96.6%. Besides, in assay [2] (Well no.=4643), the remaining activity at 3.75 µM was determined as 90.4%.
As to `Nc1ccc(S(=O)(=O)Nc2nccs2)cc1` [Sulfathiazole (sodium)], in assay [1] (Well no.=7404), the remaining activity at 1.25 µM came out at 104%. Moreover, the remaining activity at 3.75 µM in assay [2] (Well no.=7404) is 102%.
Regarding `COC(=O)CC(NC(=O)OC(C)(C)C)C(=O)CF` [BOC-D-FMK], the remaining activity at 1.25 µM in assay [1] (Well no.=6868) worked out at 95.7%; in assay [1] (Well no.=7644), 101%. For the same compound, the remaining activity at 3.75 µM is 93.9% in assay [2] (Well no.=6868) and 95.4% in assay [2] (Well no.=7644).
Take `NC(N)=NOCC[C@H](N)C(=O)O` [L-Canavanine sulfate]: the remaining activity at 1.25 µM in assay [1] (Well no.=382) is 88.7%. The remaining activity at 3.75 µM in assay [2] (Well no.=382) was 96.4%.
Consider `COc1ccc2c(c1)[C@]13CCCC[C@@H]1[C@H](C2)N(C)CC3` [Dextromethorphan], for which the remaining activity at 1.25 µM in assay [1] (Well no.=1976) is 98.8%. Besides, in assay [2] (Well no.=1976), the remaining activity at 3.75 µM amounted to 101%.
As for `N=C(N)NCCCCN` [Agmatine (sulfate)], in assay [1] (Well no.=7803), the remaining activity at 1.25 µM came to 104%. Besides, in assay [2] (Well no.=7803), the remaining activity at 3.75 µM was 106%.
